Tests used:
Assay in all cases: relative viability (nuclei count vs DMSO), 5 days (fraction); higher = more cells survive
[1] = tested on: NCI-H1355
In short: (§1)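 Relative viability equals treated-well nuclei counts divided by vehicle-well nuclei counts. Counts came from 4× images of lung cancer cell lines grown in 1536-well plates for 5 days after pin-tool dosing on the day after seeding. Dosing used one drug alone or a fixed anchor-drug dose plus five library-drug doses (not always all listed) in √10 steps, and values are medians of duplicate plates.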

[2] = tested on: NCI-H596
In short: as §1

[3] = tested on: NCI-H1734
In short: as §1

[4] = tested on: NCI-H2085
In short: as §1

[5] = tested on: SW 1573
In short: as §1

[6] = tested on: CAL-12T
In short: as §1

[7] = tested on: NCI-H2009
In short: as §1

[8] = tested on: NCI-H1993
In short: as §1

[9] = tested on: PC-14
In short: as §1

[10] = tested on: NCI-H2347
In short: as §1

[11] = tested on: EMC-BAC-2
In short: as §1

[12] = tested on: ChaGo-K-1
In short: as §1

O=C(O)CCCCC(CCSCc1ccccc1)SCc1ccccc1 (configuration not stated) [CPI-613] + CC1(C)CCC(c2ccc(Cl)cc2)=C(CN2CCN(c3ccc(C(=O)NS(=O)(=O)c4ccc(N[C@H](CCN5CCOCC5)CSc5ccccc5)c(S(=O)(=O)C(F)(F)F)c4)cc3)CC2)C1 [Navitoclax] (partner 0.5 µM)
relative viability ([1]; first compound 158.11 µM): 0.593 | relative viability ([1]; first compound 500 µM): 0.128 | relative viability ([2]; first compound 5 µM): 1.01 | relative viability ([2]; first compound 15.81 µM): 0.925 | relative viability ([2]; first compound 50 µM): 1.11 | relative viability ([2]; first compound 158.11 µM): 0.362 | relative viability ([2]; first compound 500 µM): 0.0344 | relative viability ([3]; first compound 5 µM): 0.776 | relative viability ([3]; first compound 15.81 µM): 0.677 | relative viability ([3]; first compound 50 µM): 0.75 | relative viability ([3]; first compound 158.11 µM): 0.545 | relative viability ([3]; first compound 500 µM): 0.117 | relative viability ([4]; first compound 5 µM): 0.988 | relative viability ([4]; first compound 15.81 µM): 1.04 | relative viability ([4]; first compound 50 µM): 1.07 | relative viability ([4]; first compound 158.11 µM): 0.543 | relative viability ([4]; first compound 500 µM): 0.196 | relative viability ([5]; first compound 5 µM): 0.871 | relative viability ([5]; first compound 15.81 µM): 0.962 | relative viability ([5]; first compound 50 µM): 0.792 | relative viability ([5]; first compound 158.11 µM): 0.819 | relative viability ([5]; first compound 500 µM): 0.904 | relative viability ([6]; first compound 5 µM): 1.17 | relative viability ([6]; first compound 15.81 µM): 0.967 | relative viability ([6]; first compound 50 µM): 0.965 | relative viability ([6]; first compound 158.11 µM): 0.0606 | relative viability ([6]; first compound 500 µM): 0.0373 | relative viability ([7]; first compound 5 µM): 1.18 | relative viability ([7]; first compound 15.81 µM): 1.08 | relative viability ([7]; first compound 50 µM): 1.11 | relative viability ([7]; first compound 158.11 µM): 0.264 | relative viability ([7]; first compound 500 µM): 0.0303 | relative viability ([8]; first compound 5 µM): 0.917 | relative viability ([8]; first compound 15.81 µM): 0.917 | relative viability ([8]; first compound 50 µM): 1.06 | relative viability ([8]; first compound 158.11 µM): 0.64 | relative viability ([8]; first compound 500 µM): 0.408 | relative viability ([9]; first compound 5 µM): 1 | relative viability ([9]; first compound 15.81 µM): 1.05 | relative viability ([9]; first compound 50 µM): 1 | relative viability ([9]; first compound 158.11 µM): 0.869 | relative viability ([9]; first compound 500 µM): 1.16 | relative viability ([10]; first compound 5 µM): 0.748 | relative viability ([10]; first compound 15.81 µM): 0.747 | relative viability ([10]; first compound 50 µM): 0.702 | relative viability ([10]; first compound 158.11 µM): 0.768 | relative viability ([10]; first compound 500 µM): 0.734 | relative viability ([11]; first compound 5 µM): 1.15 | relative viability ([11]; first compound 15.81 µM): 1.13 | relative viability ([11]; first compound 50 µM): 1.15 | relative viability ([11]; first compound 158.11 µM): 1.01 | relative viability ([11]; first compound 500 µM): 1.06 | relative viability ([12]; first compound 5 µM): 0.671 | relative viability ([12]; first compound 15.81 µM): 0.982 | relative viability ([12]; first compound 50 µM): 0.935 | relative viability ([12]; first compound 158.11 µM): 0.882 | relative viability ([12]; first compound 500 µM): 0.643

Source: the supplement of paper PMC10307832
